Results taken from US11066482B2, “Specific plasmin inactivation by anticatalytic antibody” (priority 2017, dated 2021).

How the values were obtained:
[1] = tested on: plasmin-mediated fibrinolysis of human fibrin clots; assay: Fibrinolysis of 125I-fibrin human plasma clots with tPA, EACA vs Pi; format: biochemical; conditions: tPA 5 nM, 2.5 h
[2] = biological target: plasmin-mediated cleavage of factor V (Homo sapiens, UniProt P00747); assay: Factor V cleavage by plasmin, SDS-PAGE; format: biochemical; conditions: EACA 1 mM or Pi 5 ug, 1 hr RT
Description: FIGS. 4A-4D show comparative inhibition of factor V cleavage and human clot fibrinolysis (dissolution) by Pi, EACA and a2AP. […] The relative migration of molecular weight standards is shown (kDa). […] Human plasma was clotted with CaCl2 (10 mM) and thrombin (1 U/ml) in the presence of trace amounts of 1251 fibrinogen for 1 h at 37 deg. C. After washing in 1 ml of TBS pH 7.4, tPA (5 nM) was added in the presence of various amounts of Pi (62.5 to 1000 nM), EACA (0.125 mM to 2 mM) or no inhibitor. After 2.5 h the amount of fibrinolysis was determined by measuring the amount of 125I-fibrin dissolved in the supernatant. Means of duplicate observations are shown. […] Clots were formed as above in the presence of human plasminogen (2 uM) and a2AP (1 uM) or Pi (1 uM) and various amounts of tPA (0-10 nM). Clot dissolution was monitored in duplicate over 2 h in microtiter plate wells at A405 nm. […] Human plasma clots were mixed with various concentrations of Pi IgG, Pi Fab and chimeric Pi Fab (25 nM-400 nM) and plasmin was activated by urokinase. The amount of clot lysis was determined as described in Methods.
Factor V cleavage. Human factor V (2 ug, IHFV, Innovative Research) was mixed with plasmin (0.05 ug) for 1 hr at RT in the presence of EACA (1 mM), Pi (5 ug) or a control monoclonal antibody (digoxin, 5 ug). […] Protein bands were detected by staining with Coomassie blue dye.

fibrinolytic bleeding = assay: Fibrinolytic bleeding assay in vivo (humanized tail bleeding model); parameters: species or system mice; conditions: EACA 510 micromole/kg intravenously
Description: Anesthetized mice were treated in a randomized, blinded fashion with saline (Control), Pi (100 nmole/kg) or EACA (510 micromole/kg) intravenously. Human plasminogen (100 nmole/kg) and plasminogen activator (80,000 IU/kg) were given over 60 min. Tail bleeding was initiated 40 min. after the infusion. Tails were pre-warmed for 5 mins in 3 mL of 37° C. saline and bleeding was monitored as described.36,37 N=5-6, Means±SE are shown. *p<0.05, **p<0.01; ns, not significant. Kruskal Wallis one way ANOVA, Dunn's corrections.
Fibrinolytic bleeding assays in vivo. Anesthetized mice were treated in a randomized, blinded fashion with saline (Control), Pi (100 nmole/kg) or EACA (510 micromole/kg). Human plasminogen (100 nmole/kg) and plasminogen activator (80,000 IU/kg) were given over 60 min. Tail bleeding started 40 min. after the infusion. Tails were pre-warmed for 5 mins in 3 mL of 37° C. saline as described.(27, 28).
Suppression of fibrinolytic bleeding in vivo. The potential utility of the Pi for suppression of fibrinolytic bleeding was examined in vivo in randomized, blinded studies of surgical arterial and venous hemorrhage.

[3] = in vivo; cited from earlier work
Plasmin = Plasmin (Homo sapiens, UniProt P00747); assay: Effect of mouse or chimeric Fab on plasmin activity, S2251; format: biochemical; conditions: plasmin 25 nM, Fab 0-200 nM, S2251 0.5 mM
Description: FIGS. 2A-2D show comparative inhibition of plasmin activity by Pi EACA and a2AP. […] The percent residual activity of plasmin as a function of the log concentration of inhibitor is shown. […] Human plasmin (100 nM, Hematologic Technologies, Inc.) was mixed with or without Pi (50 nM) in the presence of the substrate S2251 (0.1 to 4 mM). The initial rate of substrate cleavage (6 min.) was monitored at A405. Data were plotted and analyzed using Michaelis-Menten kinetics by the Graphpad Prism Program. Means (duplicate observations) are shown and are representative of 4 separate experiments. […] The means of duplicate observations are shown. […] Plasmin (25 nM) was mixed with various concentrations (0-200 nM) of mouse Fab or chimeric Fab (cFab) and S2251 (0.5 mM) in TBS buffer pH 7.4. Plasmin activity was measured by the release of paranitroanilide product at A405 over time.
The effects of mouse or chimeric Fab on plasmin activity were examined. Plasmin (25 nM) was mixed with various concentrations (0-200 nM) of mouse Fab or chimeric Fab (cFab) and S2251 (0.5 mM) in TBS buffer pH 7.4. Plasmin activity was measured by the release of paranitroanilide product at A405 over time.

human plasma clots = assay: Clot lysis assay of Pi IgG, Fab and chimeric Fab, urokinase; format: biochemical; conditions: 25 nM-400 nM, 30 min
Description: FIGS. 4A-4D show comparative inhibition of factor V cleavage and human clot fibrinolysis (dissolution) by Pi, EACA and a2AP. […] The relative migration of molecular weight standards is shown (kDa). […] Human plasma was clotted with CaCl2 (10 mM) and thrombin (1 U/ml) in the presence of trace amounts of 1251 fibrinogen for 1 h at 37 deg. C. After washing in 1 ml of TBS pH 7.4, tPA (5 nM) was added in the presence of various amounts of Pi (62.5 to 1000 nM), EACA (0.125 mM to 2 mM) or no inhibitor. After 2.5 h the amount of fibrinolysis was determined by measuring the amount of 125I-fibrin dissolved in the supernatant. Means of duplicate observations are shown. […] Clots were formed as above in the presence of human plasminogen (2 uM) and a2AP (1 uM) or Pi (1 uM) and various amounts of tPA (0-10 nM). Clot dissolution was monitored in duplicate over 2 h in microtiter plate wells at A405 nm. […] The amount of clot lysis was determined as described in Methods.
The effects of Pi IgG, Fab or chimeric Fab were also compared in a clot lysis assay in microtiter plates. […] C. was monitored at 405 nm. The percent clot dissolution at 30 min. was determined as the percent change in peak turbidity from baseline=100%×(peak absorbance−30 min. absorbance)/(peak absorbance−baseline absorbance).

Chain of plasmin-mediated cleavage of factor V (P00747 97-580 limits assumed): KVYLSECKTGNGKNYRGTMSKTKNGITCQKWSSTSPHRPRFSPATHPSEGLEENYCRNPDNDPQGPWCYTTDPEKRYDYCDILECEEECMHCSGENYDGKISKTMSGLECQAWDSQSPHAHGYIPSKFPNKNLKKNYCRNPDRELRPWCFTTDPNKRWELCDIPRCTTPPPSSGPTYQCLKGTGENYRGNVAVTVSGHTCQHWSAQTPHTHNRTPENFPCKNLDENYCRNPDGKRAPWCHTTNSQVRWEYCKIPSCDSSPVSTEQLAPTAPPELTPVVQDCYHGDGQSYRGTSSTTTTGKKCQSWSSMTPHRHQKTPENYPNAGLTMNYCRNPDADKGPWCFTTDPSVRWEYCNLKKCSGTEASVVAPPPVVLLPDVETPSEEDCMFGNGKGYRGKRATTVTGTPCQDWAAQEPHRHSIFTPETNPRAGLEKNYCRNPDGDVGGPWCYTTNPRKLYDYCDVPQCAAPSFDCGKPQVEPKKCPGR
Chain of plasmin-mediated cleavage of factor V (P00747 581-810 limits assumed): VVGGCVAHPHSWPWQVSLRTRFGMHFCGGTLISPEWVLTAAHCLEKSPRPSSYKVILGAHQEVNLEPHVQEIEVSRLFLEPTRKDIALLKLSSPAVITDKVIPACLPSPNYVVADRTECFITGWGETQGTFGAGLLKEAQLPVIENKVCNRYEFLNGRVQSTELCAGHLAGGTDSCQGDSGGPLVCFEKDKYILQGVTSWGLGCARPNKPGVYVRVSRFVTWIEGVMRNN
Chain of Plasmin (P00747 97-580 limits assumed): as the sequence (P00747 97-580 limits assumed) above
Chain of Plasmin (P00747 581-810 limits assumed): as the sequence (P00747 581-810 limits assumed) above

In the case of NCCCCCC(=O)O [EACA, epsilon amino caproic acid, reference compound], the “fold less potent than the Pi in suppressing fibrinolysis” value [1] is reported as “approximately 5,000 fold”, the “effect on fibrinolysis of human fibrin clots” value ([1]; Pi 62.5 to 1000 nM, EACA 0.125 mM to 2 mM) is reported as “diminished fibrinolysis” and the “effect on Factor V cleavage by plasmin” value [2] is reported as “slightly diminished Factor V cleavage”. The “effect on bleeding time vs saline” value (fibrinolytic bleeding) was “did not reduce bleeding time or blood loss” and the “effect on blood loss vs saline” value (fibrinolytic bleeding) was “did not reduce bleeding time or blood loss”.

For NC[C@H]1CC[C@H](C(=O)O)CC1 [Tranexamic acid, tranexamic acid], the “excreted via the urine unchanged” value [3] is given as 95%.

B1: mouse Fab: Fab fragment of the Pi lacking the Fc domain (antibody, V domains shown)
VH: EVKLLESGGGLVQPGGSLKLSCAASGFDFSRYWMSWVRQAPGKGLEWIGEINPDSSTINYTPSLKDKFIISRDNAKNSLYLQMSKVRSEDTALYYCASYCGYSYDALDCWGQGTSVTVSS
VL: DIQMTQSPSSLSASLGGKVSITCKASQDINKYISWYQHKPGKGPRLLIHYTSTLQPGIPSRFSGSGSGRDYSFSISNLEPEDIATYYCLQYDNLYTFGGGTKLEIK
In the case of B1, the “inhibition of plasmin activity with tripeptide substrate” value (Plasmin) is reported as “potently inhibited plasmin activity” and the “inhibition of clot lysis by Pi molecular forms” value (human plasma clots) is reported as “effectively inhibited clot lysis”.
